This note sets out measurements from patent publication US20240150286A1, “PEROXISOME PROLIFERATOR-ACTIVATED RECEPTOR GAMMA (PPARy) LIGANDS AND METHODS OF USE AS TREATMENTS FOR INSULIN RESISTANCE, OBESITY, FATTY LIVER DISEASE, AND TYPE 2 DIABETES” (The Board of Regents of the University of Oklahoma, priority 2022, published 2024).

The test system of series [1] is PPARγ S273 phosphorylation. In words: PPARγ S273 phosphorylation and phosphorylation-dependent genes in 3T3-L1 differentiated adipocytes. The series is classed as cell-based, mouse. On the procedure: (§1) Total RNA (2 μg) was isolated from tissues or cells using TRIzol reagents (Life Technologies) and reverse transcribed using oligo d(T) primers (New England Biosystems) and SuperScript IV reverse transcription kit (Applied Biosystems). qPCR was performed in a CFX96 Touch Real-Time PCR detection system using SYBR Green mix (Applied Biosystems). The amplification program was as follows: initial denaturation at 95° C. for 15 min, followed by 40 cycles of 95° C. for 15 s, 60° C. for 1 min, and 40° C. for 30 s. Relative mRNA expression was determined by the ΔΔCt method normalized to TBP mRNA.

Another series relates to liver of DIO mice. In words: Liver steatosis in DIO mice (H&E histology, qRT-PCR). The series is classed as in vivo, mouse. Conditions: vs vehicle. On the procedure: (§2) C57BL/6J male mice were obtained from Jackson laboratory (Bar Harbor, ME) and maintained on a 12 h light (6:00 AM to 6:00 PM)—12 h dark (6:00 PM to 6:00 AM) cycle at an ambient temperature of 22±1° C. All animals had access to diet and water ad libitum. All procedures involving animals were approved by the Institutional Animal Care and Use Committee of the University of Oklahoma Health Science Center. All experiments were performed with age-matched male mice. The mice were fed a high-fat diet (HFD) (60% kcal fat, Bio-Serv, NJ, USA) starting from the age of 6 weeks until study end. […] Food intake was determined manually by measuring the amount of input food subtracting the amount of the food remaining in the food hopper and the crumbs on the bedding of the cage each day for three days during the 4th week of the treatment. Packed cell volume (PCV) was measured with blood drawn from tail on a LW Scientific E8 centrifuge (LW Scientific, Lawrenceville, Georgia, USA) microhematocrit centrifuge at the end of study. For all other measurements, the blood was drawn at the time of euthanization.
Liver, heart, bone, adipose tissues were dissected and immediately fixed in 4% paraformaldehyde (Sigma-Aldrich), paraffin embedded, and stained with hematoxylin and eosin. For Immunofluorescence staining, the eWAT and iWAT paraffin sections were incubated with primary antibody (rabbit polyclonal to F4/80 [1:500, Cat #: 70076], Cell Signaling Technology) overnight at 4° C. after deparaffinization. […]
Total RNA (2 μg) was isolated from tissues or cells using TRIzol reagents (Life Technologies) and reverse transcribed using oligo d(T) primers (New England Biosystems) and SuperScript IV reverse transcription kit (Applied Biosystems). qPCR was performed in a CFX96 Touch Real-Time PCR detection system using SYBR Green mix (Applied Biosystems). […] Relative mRNA expression was determined by the ΔΔCt method normalized to TBP mRNA. […]
On the technique in general: Real-time PCR tracks product formation cycle by cycle.

Series [2] concerns diet-induced obesity (DIO) mice. In words: Glucose tolerance, insulin tolerance and serum biochemistry in DIO mice. Type of series: in vivo, mouse. On the procedure: as §2
Intraperitoneal glucose tolerance test (ipGTT) was performed after 6-h fasting. Blood glucose levels were measured at 0, 15, 30, 60, and 120 min glucometer (OneTouch Ultra 2 Meter) after an intraperitoneal administration of glucose at dose of 1.5 g/kg body weight. Intraperitoneal insulin tolerance test (ipITT) was performed after 6 h fasting. Blood glucose levels were measured at 0, 15, 30, 60, and 120 min after an intraperitoneal administration of human insulin at dose of 1.2 IU/kg body weight.
Serum insulin (ALPCO, NH, USA), serum cholesterol TG (Cayman Chem., MI, USA) and FFAs (Bioassay system, CA, USA) were determined by ELISA.

Series [3] has the same test system. The series can be described thus: TZD-associated side effects in DIO mice (PCV, heart weight, cardiac and bone genes). The series is classed as in vivo, mouse. On the procedure: as §2, §1
The test system is the same in series [4]. The series can be described thus: Body weight, body composition and indirect calorimetry in DIO mice. Type of series: in vivo, mouse. On the procedure:
as §2
Body lean and fat composition was determined by EchoMRI test.
The mice were individually housed in chambers of a Promethion Core Monitoring system (Sable Systems, Las Vegas, NV, USA). After a 1-day acclimation period, their oxygen consumption and carbon dioxide production were measured for the next three consecutive days. The respiratory exchange ratio and energy expenditure were calculated using standard equations

`Cc1c(C)n(Cc2ccc(-c3ccccc3C(=O)O)cc2)c2ccc(C(=O)NCc3cccc(O)c3)cc12` [WO95E, 4′-((5-((3-hydroxybenzyl)carbamoyl)-2,3-dimethyl-1H-indol-1-yl)methyl)-[1,1′-biphenyl]-2-carboxylic acid]: the “mRNA levels of PPARγ phosphorylation-dependent genes (adiponectin, cycp2f2, Ddx-17, Rarres2, Selenbp1)” value in series [1] (3T3-L1, 10 μM, qRT-PCR) was “upregulation”. For the same molecule, the “S273 phosphorylation of PPARγ” value in series [1] (3T3-L1 differentiated adipocytes, TNFα 10 ng/ml 1 h, compounds at 10 μM, Western blot) was “significantly inhibited”. In addition, the “number of lipid droplets in the liver” value in the series on liver of DIO mice (H&E) is given as “markedly reduced”. Further, in the series on liver of DIO mice, the “expression levels of PEPCK and G6PC in liver” value is reported as “significantly decreased”; the “lipogenic genes FASN, SCD-1, ACC in liver” value is “down-regulated”. Besides, in series [2] (15 mg/kg i.p. daily 4 weeks), the “serum level of free fatty acid” value was “decreased” and the total serum cholesterol entry is “downward trend but did not reach statistically significant”. For the same molecule, the triglyceride level result in series [2] (15 mg/kg i.p. daily 4 weeks, data not shown) is “unchanged”. Moreover, the “glucose tolerance (ipGTT, peak glucose and AUC)” value in series [2] (15 mg/kg i.p. daily, 2 weeks, vs vehicle) is reported as “significantly improved”. Besides, the “insulin sensitivity (ipITT)” value in series [2] (15 mg/kg i.p. daily, 2.5 weeks, vs vehicle) was “enhanced”. In addition, the “fasting and refeeding plasma levels of insulin” value in series [2] (15 mg/kg i.p. daily, vs vehicle) is listed as “markedly decreased”. The “mRNA levels of bone formation genes (Bglap, SPP1, ColA1)” value in series [3] (4-week treatment) is listed as “no apparent effect”. Besides, in series [3] (indicator of hemodilution), the “packed-cell volume (PCV)” value is recorded as “unchanged”. Also, the heart weight result in series [3] (relative to vehicle) is recorded as “no effect”. Moreover, the “mRNA levels of Myh7 and Nppb in heart” value in series [3] (vs vehicle) was “not significantly altered or even lowered”. Further, the body weight result in series [4] (DIO mice on HFD, 15 mg/kg i.p. daily 4 weeks) is “reduced body weight”. Also, in series [4] (DIO mice, 15 mg/kg i.p. daily), the “fat mass (EchoMRI)” value is “significant decrease” and the “lean mass (EchoMRI)” value is “no noticeable change”. The daily food intake result in series [4] (DIO mice, 4th week of treatment, vs vehicle) is reported as “same amount of daily food intake”. For the same molecule, the “average oxygen consumption (VO2)” value in series [4] (DIO mice, indirect calorimetry after 4-week treatment) is recorded as “higher”. Besides, the mean energy expenditure result in series [4] (DIO mice, indirect calorimetry, vs vehicle) is recorded as “significantly heightened”. Also, in series [4] (DIO mice, indirect calorimetry, p value 0.08 for daytime), the “average carbon dioxide production (VCO2)” value is given as “increased”. In series [4] (DIO mice, vs vehicle, data not shown), the “respiratory exchange ratio (RER)” value is recorded as “similar”. The “overall activity (distance)” value in series [4] (DIO mice, difference statistically insignificant) is “upward trend”.
